{"source": "patent US20250325565A1", "about": "“ERAVACYCLINE FOR TREATING CANCER” (B. G. NEGEV TECHNOLOGIES AND APPLICATIONS LTD., priority 2022, published 2025)", "key": {"[1]": {"test_system": "cleaved Poly (ADP-ribose) polymerase 1 (C-PARP1)", "assay": "Western blot of C-PARP1 in BxPC-3 cells", "assay_type": "cell-based, human", "settings": "BxPC-3, 15 μM, 72 h", "procedure": "Following the three-day incubation of BxPC-3 cells with medium alone as a control or medium containing different concentrations of eravacycline, gemcitabine, or doxorubicin, BxPC-3 cells were harvested and lysed. BxPC-3 cells were briefly lysed with a buffer containing 20 mM HEPES (pH 7.4), 150 mM NaCl, 1 mM EGTA, 1 mM EDTA, 10% glycerol, 1 mM MgCl2, 1% Triton X-100, and 10 μL of protease phosphatase inhibitors per 1 mL buffer. After incubation on ice for 45 min, the lysates were sonicated for 15 min (40% amplitude without pulses) and centrifuged at 12,000×g at 4° C., and the supernatants were collected. The supernatants were analyzed for protein concentration using the Bradford assay. Absorbance was recorded on a microplate reader at 595 nm (Bio-RadiMark Microplate Absorbance reader).\nTo evaluate the expression of cell apoptosis-related proteins, cleaved Poly (ADP-ribose) polymerase 1 (C-PARP1) was detected using western blot assays. Actin was used as a control. […] Membranes were incubated for 1 h at room temperature with anti-rabbit secondary antibodies (1:1,000, Sigma-Aldrich). β-actin levels were determined using anti-β-actin (1:10,000, Sigma-Aldrich). Immune complexes were detected with a chemiluminescence reagent (Thermo Fisher Scientific, Pierce ECL Plus Substrate), followed by exposure to Kodak X-ray film (Rochester, NY, USA). […]"}, "[2]": {"test_system": "BxPC-3 cells", "assay": "Annexin V-FITC/PI apoptosis assay by flow cytometry", "assay_type": "cell-based, human", "settings": "72 h", "procedure": "Cells were cultured in 6-well plates containing different concentrations of eravacycline, gemcitabine, or doxorubicin (medium alone was used as a control) for 72 h. Afterward, cells were collected by trypsinization for flow cytometry analysis. Cells were resuspended in 100 μl binding buffer, then stained with 5 μl propidium iodide (PI) and 5 μl Annexin V-FITC (Annexin V-FITC Apoptosis Detection Kit with PI-BioLegend) at room temperature for 20 min in the dark. Finally, the cells were collected and analyzed by FACS (Sony SP6800 Spectral cell analyzer), and the data was analyzed using SP6800 spectral analyzer software.\nTo examine eravacycline's effect on cell growth inhibition and the mechanism underlying this, the induction of apoptosis activated by eravacycline treatment in BxPC-3 cells was investigated by performing an Annexin V-FITC (V-fluorescein isothiocyanate) apoptosis assay. The effects of the treatment of BxPC-3 cells with increasing concentrations of eravacycline was evaluated after 72 h. A positive control of 1 μM of doxorubicin was evaluated at the same time point."}}}
{"smiles": "CN(C)[C@@H]1C(O)=C(C(N)=O)C(=O)[C@@]2(O)C(O)=C3C(=O)c4c(O)c(NC(=O)CN5CCCC5)cc(F)c4C[C@H]3C[C@@H]12", "note": "[eravacycline, (4S,4aS,5aR,12aS)-4-(Dimethylamino)-7-fluoro-3,10,12,12a-tetrahydroxy-1,11-dioxo-9-[2-(pyrrolidin-1-yl)acetamido]-1,4,4a,5,5a,6,11,12a-octahydrotetracene-2-carboxamide]", "values": [{"measurement": "C-PARP1 expression vs control", "setting": "[1]", "value": "increased significantly"}, {"measurement": "increase in the number of apoptotic cells", "setting": "[2]; BxPC-3, 10 μM", "value": "three-fold"}, {"measurement": "apoptosis", "setting": "[2]; BxPC-3, 25 μM", "value": "~70", "unit": "%"}]}
